Target: T1, HDM2 (Homo sapiens, UniProt Q00987)
T1 construct: Thioredoxin (N); made in house; host or cells: E. coli strain BL21(DE3)Rosetta
Test: HDM2 FRET assay (inhibition of binding of FITC labeled p53-pocket peptide to HDM2)
Settings: Table 22; read-out: FRET IC50
How it was run: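 Signal is read as the 520/495 nm emission ratio and converted to percent inhibition; nonlinear sigmoidal regression yields IC50. The assay mixes HDM2 (0.5 nM), FITC-p53 peptide (3 nM) and Tb anti-His antibody (0.25 nM) at 0.1% DMSO.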

T1 sequence (Q00987 17-125): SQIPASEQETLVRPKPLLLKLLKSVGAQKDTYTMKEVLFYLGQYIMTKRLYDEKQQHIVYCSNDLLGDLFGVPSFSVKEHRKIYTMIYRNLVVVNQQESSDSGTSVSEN

Row | Structure (SMILES) | IC50 [nM]
1 | C[C@@H](Nc1nc(-c2noc(=O)[nH]2)nc2nc(C(C)(O)c3cscn3)n(C[C@H]3CC[C@H](C)CC3)c12)C1CCC1 (stereo partly drawn) [Example 22.50, 3-(6-{[(1R)-1-cyclobutylethyl]amino}-8-[1-hydroxy-1-(1,3-thiazol-4-yl)ethyl]-7-[(trans-4-methylcyclohexyl)methyl] -7H-purin-2-yl)-1,2,4-oxadiazol-5(4H)-one] | 10.3
2 | C[C@@H](Nc1nc(-c2noc(=O)[nH]2)nc2nc(C(C)(O)c3cccnc3)n(C[C@H]3CC[C@H](C)CC3)c12)C1CCC1 (stereo partly drawn) [Example 22.51, 3-(6-{[(1R)-1-cyclobutylethyl]amino}-8-(1-hydroxy-1-pyridin-3-ylethyl)-7-[(trans-4-methylcyclohexyl)methyl] -7H-purin-2-yl)-1,2,4-oxadiazol-5(2H)-one] | 21.2
3 | C[C@@H](Nc1nc(-c2noc(=O)[nH]2)nc2nc(C(C)(O)c3cscn3)n(C[C@H]3CC[C@H](C)CC3)c12)C1CCC1 (stereo partly drawn) [Example 22.52, 3-(6-{[(1R)-1-cyclobutylethyl]amino}-8-[1-hydroxy-1-(1,3-thiazol-4-yl)ethyl]-7-[(trans-4-methylcyclohexyl)methyl] -7H-purin-2-yl)-1,2,4-oxadiazol-5(4H)-one] | 1.85
4 | C[C@@H](Nc1nc(-c2noc(=O)[nH]2)nc2nc(C3(c4ccncc4)CC3)n(C[C@H]3CC[C@H](C)CC3)c12)C1CCC1 [Example 22.53, 3-[6-{[(1R)-1-cyclobutylethyl]amino}-7-[(trans-4-methylcyclohexyl)methyl] -8-(1-pyridin-4-ylcyclopropyl)-7H-purin-2-yl]-1,2,4-oxadiazol-5(4H)-one] | 4.6
5 | C[C@@H](Nc1nc(-c2noc(=O)[nH]2)nc2nc(C3(c4cscn4)CC3)n(C[C@H]3CC[C@H](C)CC3)c12)C1CCC1 [Example 22.54, 3-(6-{[(1R)-1-cyclobutylethyl]amino}-7-[(trans-4-methylcyclohexyl)methyl] -8-[1-(1,3-thiazol-4-yl)cyclopropyl]-7H-purin-2-yl)-1,2,4-oxadiazol-5(4H)-one] | 2.26
6 | C[C@@H](Nc1nc(-c2noc(=O)[nH]2)nc2nc(C(C)(O)c3ccn(C)n3)n(C[C@H]3CC[C@H](C)CC3)c12)C1CCC1 (stereo partly drawn) [Example 22.55, 3-(6-{[(1R)-1-cyclobutylethyl]amino}-8-[1-hydroxy-1-(1-methyl-1H-pyrazol-3-yl)ethyl]-7-[(trans-4-methylcyclohexyl)methyl] -7H-purin-2-yl)-1,2,4-oxadiazol-5(2H)-one] | 22.7
7 | C[C@@H](Nc1nc(-c2noc(=O)[nH]2)nc2nc(C(C)(O)c3nccs3)n(C[C@H]3CC[C@H](C)CC3)c12)C1CCC1 (stereo partly drawn) [Example 22.56, 3-(6-{[(1R)-1-cyclobutylethyl]amino}-8-[1-hydroxy-1-(1,3-thiazol-2-yl)ethyl]-7-[(trans-4-methylcyclohexyl)methyl] -7H-purin-2-yl)-1,2,4-oxadiazol-5(4H)-one] | 2.45
8 | C[C@@H](Nc1nc(-c2noc(=O)[nH]2)nc2nc(C(O)C3CCC3)n(C[C@H]3CC[C@H](C)CC3)c12)C1CCC1 (stereo partly drawn) [Example 22.57, 3-(6-{[(1R)-1-cyclobutylethyl]amino}-8-[cyclobutyl(hydroxy)methyl]-7-[(trans-4-methylcyclohexyl)methyl] -7H-purin-2-yl)-1,2,4-oxadiazol-5(4H)-one] | 9.75
9 | C[C@@H](Nc1nc(-c2noc(=O)[nH]2)nc2nc(C(C)(O)c3nccs3)n(C[C@H]3CC[C@H](C)CC3)c12)C1CCC1 (stereo partly drawn) [Example 22.58, 3-(6-{[(1R)-1-cyclobutylethyl]amino}-8-[1-hydroxy-1-(1,3-thiazol-2-yl)ethyl]-7-[(trans-4-methylcyclohexyl)methyl] -7H-purin-2-yl)-1,2,4-oxadiazol-5(4H)-one] | 7.21
10 | C[C@@H](Nc1nc(-c2noc(=O)[nH]2)nc2nc(C3(c4nccs4)CC3)n(C[C@H]3CC[C@H](C)CC3)c12)C1CCC1 [Example 22.59, 3-(6-{[(1R)-1-cyclobutylethyl]amino}-7-[(trans-4-methylcyclohexyl)methyl] -8-[1-(1,3-thiazol-2-yl)cyclopropyl]-7H-purin-2-yl)-1,2,4-oxadiazol-5(4H)-one] | 2.3
11 | C[C@@H](Nc1nc(-c2noc(=O)[nH]2)nc2nc(C3(c4cnn(C)c4)CC3)n(C[C@H]3CC[C@H](C)CC3)c12)C1CCC1 [Example 22.63, 3-(6-{[(1R)-1-cyclobutylethyl]amino}-7-[(trans-4-methylcyclohexyl)methyl] -8-[1-(1-methyl-1H-pyrazol-4-yl)cyclopropyl]-7H-purin-2-yl)-1,2,4-oxadiazol-5(2H)-one] | 7.93
12 | C[C@@H](Nc1nc(-c2noc(=O)[nH]2)nc2nc(C3(O)CCOCC3)n(C[C@H]3CC[C@H](C)CC3)c12)C1CCC1 [Example 22.64, 3-(6-{[(1R)-1-cyclobutylethyl]amino}-8-(4-hydroxytetrahydro-2H-pyran-4-yl)-7-[(trans-4-methylcyclohexyl)methyl] -7H-purin-2-yl)-1,2,4-oxadiazol-5(4H)-one] | 49
13 | C[C@@H](Nc1nc(-c2noc(=O)[nH]2)nc2nc(C(F)c3ccccc3)n(C[C@H]3CC[C@H](C)CC3)c12)C1CCC1 (stereo partly drawn) [Example 22.66, 3-(6-{[(1R)-1-cyclobutylethyl]amino}-8-[fluoro(phenyl)methyl]-7-[(trans-4-methylcyclohexyl)methyl] -7H-purin-2-yl)-1,2,4-oxadiazol-5(4H)-one] | 7.12
14 | C[C@@H](Nc1nc(-c2noc(=O)[nH]2)nc2nc(C3(O)CCC3)n(C[C@H]3CC[C@H](C)CC3)c12)C1CCC1 [Example 22.67, 3-(6-{[(1R)-1-cyclobutylethyl]amino}-8-(1-hydroxycyclobutyl)-7-[(trans-4-methylcyclohexyl)methyl] -7H-purin-2-yl)-1,2,4-oxadiazol-5(2H)-one] | 19.3
15 | C[C@@H](Nc1nc(-c2noc(=O)[nH]2)nc2nc(C3(F)CCC3)n(C[C@H]3CC[C@H](C)CC3)c12)C1CCC1 [Example 22.68, 3-(6-{[(1R)-1-cyclobutylethyl]amino}-8-(1-fluorocyclobutyl)-7-[(trans-4-methylcyclohexyl)methyl] -7H-purin-2-yl)-1,2,4-oxadiazol-5(4H)-one] | 16.9
16 | COC1(c2nc3nc(-c4noc(=O)[nH]4)nc(N[C@H](C)C4CCC4)c3n2C[C@H]2CC[C@H](C)CC2)CCC1 [Example 22.69, 3-(6-{[(1R)-1-cyclobutylethyl]amino}-8-(1-methoxycyclobutyl)-7-[(trans-4-methylcyclohexyl)methyl] -7H-purin-2-yl)-1,2,4-oxadiazol-5(4H)-one] | 4.54
17 | C[C@@H](Nc1nc(-c2noc(=O)[nH]2)nc2nc(C3CCC3)n(C[C@H]3CC[C@H](C)CC3)c12)C1CCC1 [Example 22.70, 3-(8-cyclobutyl-6-{[(1R)-1-cyclobutylethyl]amino}-7-[(trans-4-methylcyclohexyl)methyl]-7H-purin-2-yl)-1,2,4-oxadiazol-5(4H)-one] | 15.1
18 | CC(c1ccccn1)c1nc2nc(-c3noc(=O)[nH]3)nc(N[C@H](C)C3CCC3)c2n1C[C@H]1CC[C@H](C)CC1 (stereo partly drawn) [Example 22.71, 3-[6-{[(1R)-1-cyclobutylethyl]amino}-7-[(trans-4-methylcyclohexyl)methyl] -8-(1-pyridin-2-ylethyl)-7H-purin-2-yl]-1,2,4-oxadiazol-5(4H)-one] | 6.49
19 | Cc1nc(C2(c3nc4nc(-c5noc(=O)[nH]5)nc(N[C@H](C)C5CCC5)c4n3C[C@H]3CC[C@H](C)CC3)CC2)c(C)s1 [Example 22.72, 3-(6-{[(1R)-1-cyclobutylethyl]amino}-8-[1-(2,5-dimethyl-1,3-thiazol-4-yl)cyclopropyl]-7-[(trans-4-methylcyclohexyl)methyl] -7H-purin-2-yl)-1,2,4-oxadiazol-5(4H)-one] | 3.04
20 | COC(c1cscn1)c1nc2nc(-c3noc(=O)[nH]3)nc(N[C@H](C)C3CCC3)c2n1C[C@H]1CC[C@H](C)CC1 (stereo partly drawn) [Example 22.74, 3-(6-{[(1R)-1-cyclobutylethyl]amino}-8-[methoxy(1,3-thiazol-4-yl)methyl]-7-[(trans-4-methylcyclohexyl)methyl] -7H-purin-2-yl)-1,2,4-oxadiazol-5(4H)-one] | 2.63
21 | CCOC1(c2nc3nc(-c4noc(=O)[nH]4)nc(N[C@H](C)C4CCC4)c3n2C[C@H]2CC[C@H](C)CC2)CCC1 [Example 22.76, 3-(6-{[(1R)-1-cyclobutylethyl]amino}-8-(1-ethoxycyclobutyl)-7-[(trans-4-methylcyclohexyl)methyl] -7H-purin-2-yl)-1,2,4-oxadiazol-5(4H)-one] | 4.22
22 | C[C@@H](Nc1nc(-c2noc(=O)[nH]2)nc2nc(C(F)(F)c3ccccc3)n(C[C@H]3CC[C@H](C)CC3)c12)C1CCC1 [Example 22.79, 3-(6-{[(1R)-1-cyclobutylethyl]amino}-8-[difluoro(phenyl)methyl]-7-[(trans-4-methylcyclohexyl)methyl]-7H-purin-2-yl)-1,2,4-oxadiazol-5(4H)-one] | 3.36
23 | C[C@@H](Nc1nc(-c2noc(=O)[nH]2)nc2nc(C3OCc4ccccc43)n(C[C@H]3CC[C@H](C)CC3)c12)C1CCC1 (stereo partly drawn) [Example 22.80, 3-(6-{[(1R)-1-cyclobutylethyl]amino}-8-(1,3-dihydro-2-benzofuran-1-yl)-7-[(trans-4-methylcyclohexyl)methyl]-7H-purin-2-yl)-1,2,4-oxadiazol-5(4H)-one] | 2.47
24 | C[C@@H](Nc1nc(-c2noc(=O)[nH]2)nc2nc(C3(c4ccccc4)CCO3)n(C[C@H]3CC[C@H](C)CC3)c12)C1CCC1 (stereo partly drawn) [Example 22.81, 3-[6-{[(1R)-1-cyclobutylethyl]amino}-7-[(trans-4-methylcyclohexyl)methyl]-8-(2-phenyloxetan-2-yl)-7H-purin-2-yl]-1,2,4-oxadiazol-5(4H)-one] | 11
25 | CCC(CO)c1nc2nc(-c3noc(=O)[nH]3)nc(N[C@H](C)C3CCC3)c2n1C[C@H]1CC[C@H](C)CC1 (stereo partly drawn) [Example 22.82, 3-(6-{[(1R)-1-cyclobutylethyl]amino}-8-[1-(hydroxymethyl)propyl]-7-[(trans-4-methylcyclohexyl)methyl]-7H-purin-2-yl)-1,2,4-oxadiazol-5(4H)-one] | 10.1

Reference: patent EP2951180B1, “2,6,7,8 SUBSTITUTED PURINES AS HDM2 INHIBITORS” (Merck Sharp & Dohme Corp., priority 2013, dated 2014)
